Test results from article PMC10179589, “Membrane Permeability Is Required for the Vasodilatory Effect of Carbonic Anhydrase Inhibitors in Porcine Retinal Arteries” (International Journal of Molecular Sciences, 2023).
pKi: −log10 of the molar value. Where a name gives a salt, the structure may show the parent alone.

Experiments:
hCA II = molecular target: T1, hCA II (Homo sapiens, UniProt P00918); experiment: stopped-flow CA inhibition assay; assay type: biochemical
T1 construct: gene CA2; cytosolic isoform
Description: stopped-flow CA inhibition assay on hCA II

hCA I = molecular target: T2, hCA I (Homo sapiens, UniProt P00915); experiment: stopped-flow CA inhibition assay; assay type: biochemical
T2 construct: gene CA1; cytosolic isoform
T2 sequence (P00915 2-261): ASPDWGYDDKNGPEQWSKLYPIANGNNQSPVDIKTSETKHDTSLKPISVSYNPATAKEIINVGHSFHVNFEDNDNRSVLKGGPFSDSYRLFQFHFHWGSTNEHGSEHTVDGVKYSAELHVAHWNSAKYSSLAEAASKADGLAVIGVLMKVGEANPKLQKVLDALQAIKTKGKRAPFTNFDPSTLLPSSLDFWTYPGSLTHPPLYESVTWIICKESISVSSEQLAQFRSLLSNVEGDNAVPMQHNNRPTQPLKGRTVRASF
Description: stopped-flow CA inhibition assay on hCA I

| pKi (hCA II) | pKi (hCA I) | SMILES |
| --- | --- | --- |
| 6.87 | 6.44 | N=C(N)NC(=N)Nc1ccc(S(N)(=O)=O)cc1 [compound 2, 4-(3-Carbamimidoylguanidino)benzenesulfonamide hydrochloride salt] |
| 6.58 | 6.15 | N=C(N)NC(=N)Nc1cccc(S(N)(=O)=O)c1 [compound 4, 3-(3-Carbamimidoylguanidino)benzenesulfonamide hydrochloride salt] |
